Patent publication US20230015532A1, “PHARMACEUTICAL COMPOSITION, FOR PREVENTING OR TREATING FIBROSIS, COMPRISING PHEOPHORBIDE COMPOUND AS ACTIVE INGREDIENT” (PAEAN BIOTECHNOLOGY INC., priority 2019, published 2023)

Tests used:
Type in all cases: cell-based, human
[1] = system: α-SMA, CTGF and NOX4 genes in CCD8-Lu cells; assay: Comparison of anti-fibrotic activity by quantitative real-time PCR (Experimental Example 4.1); settings: 6 hours after 5 ng/ml TGF-β, 18 hours, qRT-PCR
Experimental: A cell-based analysis experiment was performed to analyze the anti-fibrotic activity of pheophorbide a obtained in Preparation Example 2 in comparison with nintedanib and pirfenidone, which were previously approved as a therapeutic agent for pulmonary fibrosis, using quantitative real-time polymerase chain reaction.
(§1) CCD8-Lu cells, which are human lung-derived fibroblasts, were cultured in the DMEM medium containing 10% FBS. About 2×10^5 cells were then inoculated into a 6 well plate, cultured for 24 hours, and subjected to the deficient condition in the DMEM medium from which FBS was removed for about 24 hours.
24 hours later, following the treatment with TGF-β at a concentration of 5 ng/ml, fibrosis of cells was induced for 6 hours. After 6 hours, the cells were treated with pheophorbide a obtained in Preparation Example 2 or the therapeutic agent for pulmonary fibrosis and further cultured for 18 hours. […]
The supernatant was separated, added with the same volume of isopropyl alcohol and centrifuged at 12,000×g for 10 minutes. […] After drying, about 50 μl of RNAase-free purified distilled water was added thereto, and the quantity and purity of the obtained RNA was measured using a spectrophotometer. […]
After the cDNA synthesis reaction was completed, the reverse transcriptase was inactivated by heating at 72° C. for 5 minutes, and then RNase H was added to remove the […] RNA and obtain the final cDNA. Whether the expression of the alpha-smooth muscle actin gene, which is a characteristic gene of myofibroblasts, the CCN2 (or CTGF) gene, which is a characteristic gene for fibrosis, fibronectin, which is a characteristics gene for fibrosis, and the NOX4 (NADPH oxidase 4) gene known as a major regulator of the amount of reactive oxygen species was changed was observed through quantitative real-time polymerase chain reaction. The GAPDH gene was quantified together to correct differences in expression.

[2] = system: collagen 1A in CCD8-Lu cells; assay: Comparison of anti-fibrotic activity by immunocytochemistry staining (Experimental Example 4.3); settings: 1 μM; 6 hours after 5 ng/ml TGF-β; fluorescence intensity
Experimental: A cell-based analysis experiment was performed to analyze the anti-fibrotic activity of pheophorbide a in comparison with nintedanib and pirfenidone, which were previously approved as a therapeutic agent for pulmonary fibrosis, using immunocytochemistry staining method. CCD8-Lu cells, which are human lung-derived fibroblasts, were cultured in the DMEM medium containing 10% FBS. About 2×10^4 cells were then inoculated into a 24 well plate and cultured for 24 hours, and subjected to the deficient condition in the DMEM medium from which FBS was removed for about 24 hours. After 24 hours, following the treatment with TGF-β at a concentration of 5 ng/ml, fibrosis of cells was induced for 6 hours. After 6 hours, the cells were treated with 2.5 μM or 5 μM of pheophorbide a, 1 μM of nintedanib, or 1 mM of pirfenidone. Immunohistochemistry analysis for each sample was performed as follows. First, the sample was washed twice with a PBS buffer, and then 4% formaldehyde was added to fix for 1 hour, and anti-collagen 1A was used as a primary antibody and Alexa Fluor 488 was used as a secondary antibody. The nuclei were stained using DAPI (4,6-diamidino-2-phenylindole) and the difference in the intensity of fluorescence was analyzed using a fluorescence microscope.

[3] = system: α-SMA, collagen 1A and fibronectin in CCD8-Lu cells; assay: Comparison of anti-fibrotic activity by Western blotting (Experimental Example 4.2); settings: 6 hours after 5 ng/ml TGF-β, 18 hours
Experimental: A cell-based analysis experiment was performed to analyze the anti-fibrotic activity of pheophorbide a in comparison with nintedanib and pirfenidone, which were previously approved as a therapeutic agent for pulmonary fibrosis, using Western blotting assay.
as §1
24 hours later, following the treatment with TGF-β at a concentration of 5 ng/ml, fibrosis of cells was induced for 6 hours. Then, the cells were treated with pheophorbide a obtained in Preparation Example 2 or the therapeutic agent for pulmonary fibrosis and further cultured for 18 hours. Then, the negative control group was treated with nothing, the positive control group was treated with TGF-β alone at a concentration of 5 ng/ml, and the experimental groups were treated with TGF-β at a concentration of 5 ng/ml and 6 hours later, with pheophorbide a at a concentration of […] or 5 μM, nintedanib at a concentration of 1 μM, and pirfenidone at a concentration of 1 mM, respectively.
After 18 hours, the culture medium was removed and the cells were washed twice by adding a PBS buffer solution, and 100 μl of RIPA buffer solution (150 mM NaCl, 1% NP-40, 0.5% Deoxycholic acid, 0.1% SDS, 50 mM Tris pH 7.5) containing a protease inhibitor was added thereto directly. 10 minutes later, the cells were recovered using a scraper and transferred to a microtube and centrifuged at about 12,000×g for 10 minutes.
The separated supernatant was obtained and transferred to a new microtube and then the protein was quantified using a bicinchoninic acid assay (BCA assay) protein quantitative kit. Each sample with the same amount of protein was subjected to electrophoresis, and then Western blotting was performed. […]

[4] = system: phosphorylated Smad3 and phosphorylated ERK in CCD8-Lu cells; assay: Western blotting of phosphorylated proteins of TGF-β signaling (Experimental Example 5); settings: 1 μM, 6 hours after 5 ng/ml TGF-β
Experimental: A cell-based assay experiment was performed using Western blotting assay to determine the effect of pheophorbide a on phosphorylation in the TGF-β signaling pathway. CCD8-Lu cells, which are human lung-derived fibroblasts, were cultured in the DMEM medium containing 10% FBS. About 2×10^5 cells were then inoculated into a 6 well plate, cultured for 24 hours, and subjected to the deficient condition in the DMEM medium from which FBS was removed for about 24 hours. 24 hours later, following the treatment with TGF-β at a concentration of 5 ng/ml, fibrosis of cells was induced for 6 hours. Then, the cells were treated with pheophorbide a obtained in Preparation Example 2 or the therapeutic agent for pulmonary fibrosis and further cultured for 18 hours. Then, the negative control group was treated with nothing, the positive control group was treated with TGF-β alone at a concentration of 5 ng/ml, and the experimental groups were treated with TGF-β at a concentration of 5 ng/ml and 6 hours later, with pheophorbide a at a concentration of 5 μM and nintedanib at a concentration of 1 μM, respectively. […] The separated supernatant was obtained and transferred to a new microtube and then the protein was quantified using a bicinchoninic acid assay (BCA assay) protein quantitative kit. […]

SMILES	expression of α-SMA, CTGF and NOX4 genes induced by TGF-β ([1]; 1 μM)	expression of the collagen 1A protein induced by TGF-β [2]	expression of α-SMA, collagen 1A, and fibronectin induced by TGF-β ([3]; 1 μM)	expression of phosphorylated Smad3 and phosphorylated ERK induced by TGF-β [4]	expression of α-SMA, CTGF and NOX4 genes induced by TGF-β ([1]; 1 mM)	expression of α-SMA, collagen 1A, and fibronectin induced by TGF-β ([3]; 1 mM)
COC(=O)c1ccc2c(c1)NC(=O)/C2=C(\Nc1ccc(N(C)C(=O)CN2CCN(C)CC2)cc1)c1ccccc1 [nintedanib, reference compound]	weakly or hardly inhibited	weakly inhibited	weakly or hardly inhibited	hardly inhibited	–	–
Cc1ccc(=O)n(-c2ccccc2)c1 [pirfenidone]	–	–	–	–	weakly or hardly inhibited	weakly or hardly inhibited
